Reference: patent US8247552B2, “Analogs of dehydrophenylahistins and their therapeutic use” (Nereus Pharmaceuticals, Inc., priority 2002, dated 2012)
In brackets after ≈: the same amount, converted by molar mass. Like-named read-outs stand apart in the source and are kept apart here.

Columns and labels:
[1] = test system: PC-3 prostatic adenocarcinoma cells; assay: Tumor cytotoxicity assay, resazurin fluorescence, 48 h; assay type: cell-based; details: Homo sapiens, Table 1
Protocol: 10× concentrated serial dilutions of the two compounds were prepared in appropriate culture medium for final concentrations ranging from 2.0×10^−5 M to 2.0×10^−10 M. Ten μl volumes of the 10× serial dilutions were added to the test wells in triplicate and the plates returned to the incubator for 48 hours.
Resazurin dye without cells was used to determine the background, which was subtracted from the data for all experimental wells. The data were analyzed using Prism software (GraphPad Software).
PC-3, a human prostate adenocarcinoma, was maintained in F12K complete medium (F12K medium supplemented with 10% FBS; 2 mM Glutamine; 1% HEPES; and Pen/Strep at 100 IU/ml and 100 μg/ml, respectively).
20 mM stock solutions of compounds were prepared in 100% DMSO and stored at −80° C. […] Ten μl volumes of the 10× serial dilutions were added to the test wells in triplicate and the plates returned to the incubator for 48 hours.

[2] = test system: Jurkat cells (human T cell leukemia line); assay: DNA fragmentation (DNA laddering) by gel electrophoresis; assay type: cell-based
Excerpt: A late stage characteristic of apoptosis is internucleosomal DNA cleavage that results in a distinctive ladder pattern that can be visualized by gel electrophoresis.

Trichophyton rubrum = assay: Antifungal susceptibility testing (NCCLS M38-A), MIC/MFC; assay type: cell-based
Protocol: Specifically, disclosed compounds were evaluated alongside commercially available microtubulin inhibitors as well as recognized antifungal agents.
(§1) Microorganisms against which these compounds were tested included: Candida albicans, Candida glabrata, Aspergillus fumigatus, Trichophyton rubrum, Trichophyton mentagrophytes, Epidermophyton floccosum. With the exception of Candida glabrata (one isolate), two isolates of each species were tested.
(§2) The minimum lethal concentration (MLC) was determined by plating […] from the MIC concentration and each concentration above the MIC. […] When a MIC was obtained, a minimum fungicidal concentration (MFC) was determined to assess the fungistatic/fungicidal nature of the compound.

[3] = test system: Trichophyton mentagrophytes; assay: as above; assay type: cell-based
Protocol: (§3) Specifically, disclosed compounds were evaluated alongside commercially available microtubulin inhibitors as well as recognized antifungal agents. […].
as §1
(§4) Drug concentrations were 0.03-16 μg/ml for the investigational compounds, 0.015-8 μg/ml for itraconazole and griseofulvin.
as §2, with “compound. […] The compound is scored as fungistatic if the cells are able to resume growth and fungicidal if no regrowth is possible because the compound had killed the organisms.” for “compound.”

HT-29 human colon cells = assay: Tumor cytotoxicity / cell growth inhibition assay, resazurin fluorescence, 48 h; assay type: cell-based
Cytotoxicity, resazurin = assay type: cell-based; details: human, CCD-27sk normal fibroblasts; Table 12; CCD-27sk Fibroblast
Excerpt: (§5) Cells were maintained at subconfluent densities in their respective culture media.

[4] = test system: OVCAR-3 (human ovarian tumor); assay: Cytotoxicity, resazurin; assay type: cell-based; details: Table 12, OVCAR-3 Ovary
Excerpt: as §5

[5] = test system: poly(ADP-ribose) polymerase (PARP) in Jurkat cells; assay: Cleavage of poly(ADP-ribose) polymerase by western blotting; assay type: cell-based, human; details: 100 nM, 10 hours after exposure
[6] = test system: DU-145 human prostate tumor; assay: DU-145 Human Prostate Tumor Xenograft Model; assay type: in vivo, mice; details: KPU-2 plus taxotere, treatment Days 20-27
Protocol: Selected novel compounds were administered as monotherapy via the intraperitoneal (i.p.) route at the doses indicated for the individual study; for the combination studies the selected reference chemotherapy agents were injected 15-30 min prior to the compound.
When the tumors reached ˜5 mm×5 mm (at about 13-17 days) the animals were matched into treatment and control groups. The remainder of the study proceeded as for the HT-29 model, using taxotere as the standard chemotherapy agent.
In this model unless otherwise noted for the individual study, test compounds were administered via the intraperitoneal route on Days 1, 3, 5, 8 and 11 (q3dx5); taxotere was administered intravenously on Days 1, 3 and 5 (q2dx3).

MCF-7 human breast tumor = assay: MCF-7 Human Breast Tumor Xenograft Model; assay type: in vivo, mice; details: combination with taxotere
Protocol: Animals used were (exceptions are indicated for individual studies): female nude mice (nu/nu) between 5 and 6 weeks of age (˜20 g, Harlan); group size was 9-10 mice per group unless otherwise indicated.
Female nude mice (˜20 g) were implanted s.c. with 21-day release estrogen (0.25 mg) pellets 24 hours prior to the s.c. implantation with MCF-7 tumor fragments (harvested from s.c. tumors in nude mice hosts). The study then proceeded as described for the HT-29 model, using taxotere as the standard chemotherapy agent.
In this model unless otherwise noted for the individual study, the novel compounds were injected via the intraperitoneal route daily on Days 1-5, inclusive (qdx5); taxotere was administered intravenously on Days 1, 3 and 5 (qodx3).
The doses of the compounds were administered on Days 1, 2, 3, 4, and 7; Taxotere was administered on Days 1, 3 and 7.

[7] = test system: MDA-231 human breast tumor; assay: MDA-231 Human Breast Tumor Orthotopic (mammary fat pad) Xenograft Model; assay type: in vivo, mice; details: KPU-2 7.5 mg/kg ip q3dx5 with paclitaxel 16 mg/kg ip qdx5; three weeks
Protocol: The animals used were: female nude mice (nu/nu) (MDA-231 study) or B6D2F1 (B16-F10 studies) mice between 5 and 6 weeks of age (˜20 g, Harlan); group size was 10 mice per group unless otherwise indicated.
NPI compounds were administered as monotherapy via the intraperitoneal route at the doses indicated for the individual study; for the combination studies the selected reference chemotherapy agents were injected 15-30 min prior to the NPI compound.
Female nude mice were injected in the mammary fat pad with 2×10^6 MDA-231 cells harvested from in vitro cell culture. When the tumor size reached 5 mm×5 mm (about 14-28 days) the animals were matched into treatment and control groups. The study then proceeded as described for the HT-29 model, using paclitaxel as the standard chemotherapy agent.
In this model unless otherwise noted for the individual study, the test compounds were administered via the intraperitoneal route on Days 1, 4, 8, 11 and 15 (q3dx5); paclitaxel was administered via the intraperitoneal route on Days 1-5 (qdx5).
This model involves the placement of the human tumor tissue into the mouse mammary fat pad, a surrogate of the natural environment. In this manner the possibility of a positive effect due to a specific action on the subcutaneous vascular bed is avoided.

[8] = test system: human prostate tumor cells; assay: Induction of apoptosis, morphological changes; assay type: cell-based
Excerpt: The characteristic signs of apoptotic cell death include cell membrane blebbing, disruption of nuclei, cell shrinkage and condensation and finally cell death, very distinctive from necrotic cell death. […] A similar finding was also clear in the treatment of HuVEC cells with KPU-2.

[9] = test system: panel of 60 different kinases; details: ATP 10 μM; four kinases
HuVEC cells = assay: Microtubule (tubulin) depolymerization, α-tubulin staining; details: for microtubule depolymerization in HuVEC cells: 2 μM, thirty minutes exposure
Protocol: The plates were returned to the incubator for 2 days.
20 mM stock solutions of compounds were prepared in 100% DMSO and stored at −80° C. 400× concentrated dilutions of the compounds were prepared in 100% DMSO. 5 μl volumes of the dilutions were added to individual wells resulting in a final concentration of 20 nM. […] The plates were returned to the incubator for 30 minutes.
The cells were rinsed in dPBS before fixation in 10% (v/v) neutral buffered formalin for 10 minutes at room temperature. Following fixation, α-tubulin was visualized by indirect immunofluorescence. Specifically, the cells were permeabilized in 0.2% (v/v) triton X-100/dPBS for 10 minutes. The cells were washed prior to transferring the coverslips to a humidified chamber, the coverslips were blocked for two hours in antibody buffer [2% (w/v) BSA/0.1% (v/v) Tween 20/dPBS]. The coverslips were incubated with 50 μl of 0.1 μg/ml mouse α-tubulin (Molecular Probes) in antibody buffer for 1 hour before washing and incubation with 50 μl of 1 μg/ml goat anti-mouse FITC (Jackson ImmunoResearch Laboratories) for one hour in the dark. Finally, the cells were washed and treated with 2 μg/ml DAPI (Molecular Probes) for 10 minutes before rinsing in H2O and mounting with Vectashield (Vector Labs) mounting media. The cells were imaged using a 60× oil immersion objective on an upright microscope (Olympus BX51). The images were digitally captured using a CCD camera and Magnafire 2.0 software (Olympus). Post image processing was performed in Photoshop Elements 2.0 (Adobe) and in Microsoft Powerpoint.
Human umbilical vein endothelial cells (HuVECs; Cambrex CC2519A) were maintained at subconfluent densities in EGM-2 (Cambrex) media. […] The plates were returned to the incubator for 2 days.
Stock (20 mM) solutions of the test compounds were prepared in 100% DMSO. 400× concentrated dilutions of the compounds were prepared in 100% DMSO. 5 μl volumes of the dilutions were added to individual wells resulting in a final concentration of 200 nM. […] The plates were returned to the incubator for 30 minutes.
The cells were rinsed in dPBS before fixation in 10% (v/v) neutral buffered formalin for 10 minutes at room temperature. Following fixation, α-tubulin was visualized by indirect immunofluorescence. Specifically, the cells were permeabilized in 0.2% (v/v) triton X-100/dPBS for 10 minutes. The cells were washed prior to transferring the coverslips to a humidified chamber, the coverslips were blocked for two hours in antibody buffer (2% (w/v) BSA/0.1% (v/v) Tween 20/dPBS). The coverslips were incubated with 50 μl of 0.1 μg/ml mouse α-tubulin (Molecular Probes) in antibody buffer for 1 hour before washing and incubation with 50 μl of 1 μg/ml goat anti-mouse FITC (Jackson ImmunoResearch Laboratories) for one hour in the dark. Finally, the cells were washed and treated with 2 μg/ml DAPI (Molecular Probes) for 10 minutes before rinsing in H2O and mounting with Vectashield (Vector Labs) mounting media. The cells were imaged using a 60× oil immersion objective on an upright microscope (Olympus BX51). The images were digitally captured using a CCD camera and Magnafire 2.0 software (Olympus). Post image processing was performed in Photoshop Elements 2.0 (Adobe) and in Microsoft Powerpoint.

[10] = test system: N202 mammary tumor vasculature; assay: Murine syngeneic pseudo-orthotopic breast cancer model, dorsal skinflap chamber, vascular targeting
Excerpt: A murine syngeneic “pseudo-orthotopic” breast cancer model was used to address these issues. […] To create the “pseudo-orthotopic milieu,” the coverslip of a dorsal skinflap chamber was removed and small pieces of mammary fatpad from donor mice were implanted into the chamber. On top of the fatpad graft, tumor spheroids containing N202 mammary tumor cells transduced with Histone (H2B)-green fluorescent protein (GFP) were applied. The use of H2B-GFP transduced cells allows for visualizing tumor growth and monitoring mitosis and apoptosis.
Fluorescence video microscopy allows for the relatively non-invasive study of tumor microcirculation in conscious mice.
Tumor area, blood flow rate, and vascular density within and surrounding the tumor were visualized. Real-time observations were recorded at various time-points using still photos and video microscopy.

[11] = test system: P22 rat sarcoma tumor blood flow; assay: Blood flow in the P22 rat sarcoma model with 125I-IAP; assay type: in vivo; details: 15 mg/kg IP
Protocol: In contrast, blood flow in non-tumor tissues was affected to a much lesser extent at 1 hour (see FIG. 35).

P22 rat sarcoma = assay: Tumor necrosis in the P22 rat sarcoma model; assay type: in vivo; details: 7.5 and 15 mg/kg IP, 24 hours post-dose
Excerpt: “A dose-escalation study of the novel vascular-targeting agent, ZD6126, in patients with solid tumors,” Proc Am Soc Clin Oncol 2002; 21:abstract 438; each of which is hereby incorporated by reference in its entirety.

[12] = test system: MCF7 cells (GFP-alpha-tubulin); assay: Microtubule dynamic instability in living MCF7 cells (time-lapse microscopy); assay type: cell-based, human; details: concentrations effecting 25% or 50% of maximal mitotic block
[13] = test system: MES-SA/Dx5 (Taxol resistant) human uterine sarcoma; assay: Cytotoxicity / growth inhibition in multidrug resistant uterine sarcoma cells; assay type: cell-based; details: for IC50: Table 13, III
Protocol: 1) Human Uterine Sarcoma Tumor Cell Line Pair: MES-SA (Taxol Sensitive) and MES-SA/Dx5 (Taxol Resistant).
HL-60 and HL-60/MX2 cells were both seeded at 5×10^4 cells/well in 90 μl complete media into 96 well plates on the day of compound addition. […] Ten μl volumes of the 10× serial dilutions were added to the test wells in triplicate and the plates returned to the incubator for 48 hours.
Resazurin dye in medium without cells was used to determine the background, which was subtracted from the data for all experimental wells.
The multidrug resistant MES-SA/Dx5 tumor cell line was derived from the human uterine sarcoma MES-SA tumor cell line and expresses elevated P-Glycoprotein (P-gp), an ATP dependent efflux pump. […] Paclitaxel, a known substrate of the P-gp pump was included as a control.

HuVEC monolayer = HuVEC monolayer permeability to FITC-Dextran; assay type: cell-based, human
Protocol: The enhanced permeability of HuVEC cells to a fluorescent-labeled dextran is used as a proxy assay for vascular collapse.
Human umbilical vein endothelial cells (HuVECs; Cambrex CC2519A) were maintained at subconfluent densities in EGM-2 (Cambrex) media. […] For monolayer permeability assays, HuVEC cells were seeded at 1×10^5 cells/ml in EGM-2 media on Fibronectin-coated 3.0 μm Fluoroblok inserts (Becton Dickinson) in 24-well plates. The plates were returned to the incubator for 4 days to allow the cells to reach confluency.
Stock solutions (20 mM) of the test compounds were prepared in 100% DMSO. 10× concentrated serial dilutions of the compounds were prepared in EGM-2. 10 μl volumes of the serial dilutions were added to the test inserts in duplicate resulting in final concentrations ranging from 2 μM to 2 nM.
The final concentration of FITC-Dextran was 1 mg/ml.

[14] = Physicochemical stability, Z to E migration under light; details: visible light, normal room light
Protocol: The physicochemical stability is one of the unfavorable problems of dehydroPLH. In phenylahistin, since there is no additional olefin structure at the benzyl part, there is no such problem. […] In the cytotoxic assay, some of the compounds migrate to E-form during the incubation, although this migration probably equilibrates at the 1:1 ratio in the case of dehydroPLH. This migration can be controlled.

Epidermophyton floccosum = assay: Antifungal susceptibility testing (NCCLS M38-A), MIC/MFC; assay type: cell-based; details: Table 24, read-out: E. floccosum isolate #2 (column head empty, before MFC)
Protocol: as §3, §1, §4
as §2, with “compound. […] The compound is scored as fungistatic if the cells are able to resume growth and fungicidal if no regrowth is possible because the compound had killed the organisms.” for “compound.”

[15] = test system: HL-60 human acute promyelocytic leukemia (Mitoxantrone-sensitive); assay: Cytotoxicity / growth inhibition in sensitive leukemia cells; assay type: cell-based; details: Table 20, mean of two independent experiments, 48 hours
Protocol: (§6) HL-60 and HL-60/MX2 cells were both seeded at 5×10^4 cells/well in 90 μl complete media into 96 well plates on the day of compound addition. 20 mM stock solutions of the compounds were prepared in 100% DMSO and stored at −80° C. […] Ten μl volumes of the 10× serial dilutions were added to the test wells in triplicate and the plates returned to the incubator for 48 hours.

[16] = test system: HL-60/MX-2 (Mitoxantrone-resistant); assay: Cytotoxicity / growth inhibition in resistant leukemia cells; assay type: cell-based, human
Protocol: as §6

C=CC(C)(C)c1[nH]cnc1/C=c1\[nH]c(=O)/c(=C/c2ccccc2)[nH]c1=O [KPU-1, Dehydrophenylahistin]
EC50 [1]: 5.4 nM | DNA laddering, potency compared with KPU-2 [2]: much less potent | potency versus T. rubrum (Trichophyton rubrum): significantly less potent than the other compounds | potency versus sensitive T. mentagrophytes isolate [3]: weaker but more comparable to the others

CC(C)(C)c1[nH]cnc1/C=c1\[nH]c(=O)/c(=C/c2ccccc2)[nH]c1=O [KPU-2, tBu-dehydrophenylahistin]
cytotoxic activity against HT-29 cells (HT-29 human colon cells): active in the low nanomolar range | cytotoxicity at 48 h (Cytotoxicity, resazurin): 64.3% | IC50 [4]: > 20 nM | cleavage of PARP [5]: induced cleavage of PARP | apparent TGI of combination therapy [6]: > 58% | effect on estimated tumor growth with taxotere (MCF-7 human breast tumor): appeared to be the most effective | inhibition of tumor growth [7]: significant inhibition of tumor growth in the combination therapy group | antifungal potency compared with griseofulvin (Trichophyton rubrum; dermatophyte isolates): equivalent in potency or in some cases more potent than griseofulvin | morphological changes of apoptosis [8]: induced the typical morphological changes associated with early stages of apoptosis | IC50 against kinases inhibited >50% in primary screen [9]: low micromolar range | microtubule depolymerization in HuVEC cells (HuVEC cells): induced microtubule depolymerization

CC(C)(C)c1[nH]cnc1/C=c1\[nH]c(=O)/c(=C/c2ccccc2)[nH]c1=O [KPU-02]
tolerability ([10]; i.v. infusion 5-10 mg/kg): well tolerated | effect on tumor vasculature ([10]; single i.v. treatment): rapid collapse of the central vasculature | tumor blood flow, % of vehicle ([11]; 1 hour after administration): 23% | tumor blood flow, % vehicle ([11]; 24 hours): 59% | tumor necrosis (P22 rat sarcoma): dose-dependent tumor necrosis | effect on MT dynamic instability [12]: did not have a measurable effect on MT dynamic instability | tubulin depolymerization in HuVEC cells (HuVEC cells; 200 nM, 30 min): rapidly induce tubulin depolymerization

CC(=O)O[C@H]1C(=O)[C@@]2(C)[C@H]([C@H](OC(=O)c3ccccc3)[C@]3(O)C[C@H](OC(=O)[C@H](O)[C@@H](NC(=O)c4ccccc4)c4ccccc4)C(C)=C1C3(C)C)[C@]1(OC(C)=O)CO[C@@H]1C[C@@H]2O [Taxol]
potency in resistant MES-SA/DX5 versus sensitive MES-SA line [13]: virtually inactive | IC50 ([13]; cyclosporin A pretreatment, Study II, read-out: MES-SA/DX5 Resistant, CsA Pretreat, IC50 nM): 40 nM | IC50 ([13]; no cyclosporin A, Study I, II, read-out: MES-SA/DX5 Resistant, No CsA, IC50 nM): > 24000 nM | HuVEC monolayer permeability (HuVEC monolayer): inactive | microtubule depolymerization in HuVEC cells (HuVEC cells): did not induce microtubule depolymerization

C=CC(C)(C)c1[nH]cnc1/C=c1\[nH]c(=O)/c(=C/c2ccccc2)[nH]c1=O [dehydroPLH, dehydrophenylahistin]
Z to E migration [14]: Z to E migration frequently occurs

COC1=CC(=O)C[C@@H](C)[C@]12Oc1c(Cl)c(OC)cc(OC)c1C2=O [griseofulvin, Griseofulvin]
MFC (Epidermophyton floccosum): 4 µg/mL (≈ 11.3 µM)

O=C1c2c(O)ccc(O)c2C(=O)c2c(NCCNCCO)ccc(NCCNCCO)c21 [mitoxantrone, Mitoxantrone]
reduced susceptibility of MES-SA/DX5 cell line ([13]; versus MES-SA): 20 fold | EC50 [15]: 42 nM | EC50 ([16]; Homo sapiens, HL60/MX2, Table 20, mean of two independent experiments, 48 hours): 1100 nM | loss of efficacy in the resistant HL-60/MX-2 cell line ([16]; versus HL-60, Example 10): 24 fold | times less active against resistant HL-60/MX2 cells ([16]; versus HL-60, Example 11): ~26 times
